Assay results published in US4371523A, “Reducing the aggregation of insulin in solution” (The Regents of the University of California, priority 1980, dated 1983).
Entries after “also recorded” stand apart in the source; their conditions may differ.

Tests used:
[1] = target: T1, single component neutral pork zinc insulin (Sus scrofa, UniProt P01315); assay: Controlled shaking of zinc insulin solutions in test tubes, optical density at 600 nm; assay type: physicochemical; conditions: for Optical Density ± 1 × SE: zinc insulin 50 U/ml, OD at 600 nm
T1 construct: single component, neutral, pork, zinc-insulin (U.500 regular Iletin II., Eli Lilly & Company); purchased Eli Lilly & Company U.500 regular Iletin II
T1 sequence (P01315 25-54 limits assumed): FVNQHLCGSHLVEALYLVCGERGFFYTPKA
T1 sequence (P01315 88-108 limits assumed): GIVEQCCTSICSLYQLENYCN
Experimental: In vitro testing of single component neutral pork zinc insulin was undertaken with a number of added agents. Solutions at about neutral pH and at acid pH were tested. In addition, some testing was also undertaken with Na insulin.
The tests were conducted using plastic tybes (5 ml test tubes, Sarstedt, sealed by plastic caps covered with paraffin) each containing 2 ml of the insulin solutions noted below. The tubes were continuously agitated in a metabolic shaking incubator (Dubnoff E.C.A. Co.) at 60 to 80 r.p.m. and 37° C. for periods up to sixteen days.
The zinc insulin solutions were prepared by appropriate dilutions of highly concentrated (500 U/ml) single component, neutral, pork, zinc-insulin (U.500 regular Iletin II., Eli Lilly & Company). The unbuffered diluting fluid contained glycerin, 16 mg/ml, and phenol, 2 mg/ml of distilled water (Eli Lilly & Company). […] Final insulin concentration in all solutions was 50 U/ml (2 mg/ml).
Insulin solutions with amino acid added were prepared by addition of the dry amino acids (Sigma Company) to the neutral zinc or sodium insulin solutions. Final concentration of the amino acid additives was 7 mg per ml of insulin solution. pH was adjusted, when necessary, to 7.5 for neutral insulin mixtures and to 3.3-3.5 for acid insulin mixtures.
Several non-amino carboxylic acids, i.e., lactic acid, acetic acid, and citric acid, were added under the same conditions of concentration and pH as described for the amino acids.
The various insulin solutions, both as made up without additives and with additives, were shaken as noted above for up to sixteen days, at which time the solutions were examined with an optical densitometer at a wave length 600 nm. The optical density (OD) of each solution was an indication of the amount of aggregation present after the shaking period. The higher the optical density, the greater the aggregation in that solution.

pork sodium-insulin = target: T2, pork sodium-insulin (Sus scrofa, UniProt P01315); assay: Controlled shaking of Na insulin solutions in test tubes, optical density at 600 nm; assay type: physicochemical; conditions: for Optical Density ± 1 × SE: Na insulin 50 U/ml, OD at 600 nm
T2 construct: pork sodium-insulin crystals (U.1000 neutral sodium insulin special pork obtained from Eli Lilly & Company); purchased Eli Lilly & Company U.1000 neutral sodium insulin special pork
T2 sequence (P01315 25-54 limits assumed): as the sequence (P01315 25-54 limits assumed) above
Experimental: In vitro testing of single component neutral pork zinc insulin was undertaken with a number of added agents. Solutions at about neutral pH and at acid pH were tested. In addition, some testing was also undertaken with Na insulin. The tests were conducted using plastic tybes (5 ml test tubes, Sarstedt, sealed by plastic caps covered with paraffin) each containing 2 ml of the insulin solutions noted below. The tubes were continuously agitated in a metabolic shaking incubator (Dubnoff E.C.A. Co.) at 60 to 80 r.p.m. and 37° C. for periods up to sixteen days. The sodium insulin solutions were made by dissolving pork sodium-insulin crystals (U.1000 neutral sodium insulin special pork obtained from Eli Lilly & Company) in the same diluting fluid as utilized with the zinc insulin. The solutions were adjusted to neutral or acid pH as indicated above. Final insulin concentration in all solutions was 2 mg/ml (50 U/ml). Insulin solutions with amino acid added were prepared by addition of the dry amino acids (Sigma Company) to the neutral zinc or sodium insulin solutions. Final concentration of the amino acid additives was 7 mg per ml of insulin solution. pH was adjusted, when necessary, to 7.5 for neutral insulin mixtures and to 3.3-3.5 for acid insulin mixtures. The various insulin solutions, both as made up without additives and with additives, were shaken as noted above for up to sixteen days, at which time the solutions were examined with an optical densitometer at a wave length 600 nm. The optical density (OD) of each solution was an indication of the amount of aggregation present after the shaking period. The higher the optical density, the greater the aggregation in that solution.

insulin = conditions: supplemental material added to insulin solution; cited from earlier work
[2] = agent added to insulin solution at acid pH 3.3-3.5
[3] = pH 3.3-3.5, shaken 16 days at 37° C.
[4] = pH 7.4, shaken 16 days at 37° C., higher OD = greater aggregation

| Compound | Protective effect against insulin aggregation (in words) [1, 2] | Optical Density ± 1 × SE [1, 4] | further results |
| --- | --- | --- | --- |
| CC(=O)O [Acetic Acid] | do not prevent aggregation; also recorded: a comparable protective effect was not noted |  | Protective effect against insulin aggregation (in words) ([1]; agent added to insulin solution at acid pH 3.3-3.5, listed as acetate): exacerbate aggregation |
| C[C@H](N)C(=O)O [Alanine] | no protective effect was noted | 0.84 ± 0.04 | Optical Density ± 1 × SE [1, 3]: 0.41 ± 0.02 |
| N=C(N)NCCC[C@H](N)C(=O)O [Arginine] | no protective effect was noted | 0.074 ± 0.03 | Observation of the solution after shaking ([1]; zinc insulin, pH 7.4, 16 days): Gel formed |
| NC(=O)C[C@H](N)C(=O)O [Asparagine] | no protective effect was noted | 0.87 ± 0.13 |  |
| N[C@@H](CC(=O)O)C(=O)O [Aspartic Acid] |  | 0.51 ± 0.078 | Protective effect against insulin aggregation (in words) ([1]; agent added to insulin solution at acid pH 3.3-3.5, listed as Aspartic acid): more effective than glutamic acid; also recorded: particularly effective in protecting insulin solutions from aggregation; Protective effect against insulin aggregation (in words) ([1]; agent added to insulin solution at acid pH 3.3-3.5, listed as aspartic acid): prevented the development of any appreciable aggregation throughout the entire experiment; Protective effect against insulin aggregation (in words) ([1]; agent added to insulin solution at neutral pH (about pH 7, pH 7.4)): do not offer any effective protection; also recorded: the protective effect of the agents are no longer apparent; Optical Density ± 1 × SE [1, 3]: 0.084 ± 0.009; Optical Density ± 1 × SE (pork sodium-insulin; pH 3.5, shaken at 37° C.): 0.10 ± 0.01; Protective effect on Na insulin solutions (in words) (pork sodium-insulin; acid pH): some protective effect |
| O=C(O)CC(O)(CC(=O)O)C(=O)O [Citric Acid] | do not prevent aggregation; also recorded: a comparable protective effect was not noted |  | Protective effect against insulin aggregation (in words) ([1]; agent added to insulin solution at acid pH 3.3-3.5, listed as citrate): exacerbate aggregation |
| N[C@@H](CS)C(=O)O [Cysteine] |  | 0.34 ± 0.13 | Optical Density ± 1 × SE [1, 3]: 0.39 ± 0.08; Effect in preventing the aggregation of insulin in solution over extended periods of time (insulin): do not appear to have any appreciable effect |
| N[C@@H](CCC(=O)O)C(=O)O [Glutamic Acid] |  | 0.717 ± 0.266 | Protective effect against insulin aggregation (in words) ([1]; agent added to insulin solution at acid pH 3.3-3.5, listed as Glutamic acid): prevented the development of any appreciable aggregation throughout the entire experiment; Protective effect against insulin aggregation (in words) ([1]; agent added to insulin solution at acid pH 3.3-3.5, listed as glutamic acid): particularly effective in protecting insulin solutions from aggregation; Protective effect against insulin aggregation (in words) ([1]; agent added to insulin solution at neutral pH (about pH 7, pH 7.4), listed as Glutamic acid): do not offer any effective protection; Protective effect against insulin aggregation (in words) ([1]; agent added to insulin solution at neutral pH (about pH 7, pH 7.4), listed as glutamic acid): the protective effect of the agents are no longer apparent; Optical Density ± 1 × SE [1, 3]: 0.123 ± 0.02; Optical Density ± 1 × SE (pork sodium-insulin; pH 3.5, shaken at 37° C.): 0.13 ± 0.03 |
| NC(=O)CC[C@H](N)C(=O)O [Glutamine] | no protective effect was noted | 0.68 ± 0.03 |  |
| NCC(=O)O [Glycine] | no protective effect was noted | 0.66 ± 0.095 | Optical Density ± 1 × SE [1, 3]: 0.28 ± 0.04; Effect in preventing the aggregation of insulin in solution over extended periods of time (insulin): do not appear to have any appreciable effect |
| N[C@@H](Cc1c[nH]cn1)C(=O)O [Histidine] | no protective effect was noted | 0.245 ± 0.08 | Effect in preventing the aggregation of insulin in solution over extended periods of time (insulin): do not appear to have any appreciable effect |
| CC(O)C(=O)O (centres unmarked) [Lactic Acid] | do not prevent aggregation; also recorded: a comparable protective effect was not noted |  | Protective effect against insulin aggregation (in words) ([1]; agent added to insulin solution at acid pH 3.3-3.5, listed as lactate): exacerbate aggregation |
| CC(C)C[C@H](N)C(=O)O [Leucine] | no protective effect was noted | 0.695 ± 0.03 |  |
| NCCCC[C@H](N)C(=O)O [Lysine] | no protective effect was noted | 0.25 ± 0.08 | Optical Density ± 1 × SE [1, 3]: 0.35 ± 0.13 |
| CSCC[C@H](N)C(=O)O [Methionine] | no protective effect was noted | 0.74 ± 0.22 |  |
| O=C(O)[C@@H]1CCCN1 [Proline] | no protective effect was noted | 0.665 ± 0.21 |  |
| N[C@@H](CO)C(=O)O [Serine] | no protective effect was noted | 0.89 ± 0.02 |  |
| C[C@@H](O)[C@H](N)C(=O)O [Threonine] | no protective effect was noted | 0.76 ± 0.02 |  |
| N[C@@H](Cc1c[nH]c2ccccc12)C(=O)O [Tryptophane] | no protective effect was noted | 0.585 ± 0.200 |  |
| CC(C)[C@H](N)C(=O)O [Valine] | no protective effect was noted | 0.64 ± 0.26 |  |
| OCc1ccccc1 [benzol alcohol] |  |  | Effect in preventing the aggregation of insulin in solution over extended periods of time (insulin): do not appear to have any appreciable effect |
| N[C@@H](CSSC[C@H](N)C(=O)O)C(=O)O [cystine] | no protective effect was noted |  |  |
| O=C(O)CN(CCN(CC(=O)O)CC(=O)O)CC(=O)O [ethylene diamine tetraacetic acid] |  |  | Effect in preventing the aggregation of insulin in solution over extended periods of time (insulin): do not appear to have any appreciable effect |
| Cl [hydrochloric acid] | a comparable protective effect was not noted |  |  |
| O=C([O-])O.[Na+] [sodium bicarbonate] |  |  | Effect in preventing the aggregation of insulin in solution over extended periods of time (insulin): do not appear to have any appreciable effect |
| [Cl-].[Na+] [sodium chloride] |  |  | Effect in preventing the aggregation of insulin in solution over extended periods of time (insulin): do not appear to have any appreciable effect |
| O=P(O)(O)O [sodium phosphate] |  |  | Effect in preventing the aggregation of insulin in solution over extended periods of time (insulin): do not appear to have any appreciable effect |
| Na Insulin: pork sodium-insulin crystals (U.1000 neutral sodium insulin special pork, Eli Lilly & Company) in solution, no agent added |  |  | Optical Density ± 1 × SE (pork sodium-insulin; pH 3.5, shaken at 37° C.): 0.128 ± 0.02; Optical Density ± 1 × SE (pork sodium-insulin; pH 7.4, shaken at 37° C.): 0.18 ± 0.02; Aggregation of Na insulin (in words) (pork sodium-insulin; pH 3.3-3.5): less than at pH 7.4 but is nevertheless appreciable; Aggregation of Na insulin (in words) (pork sodium-insulin; pH 7.4, by 16 days): also aggregates; also recorded: aggregation is less than that seen for neutral zinc insulin at the same pH |
